Laboratory results taken from ChEMBL document CHEMBL1201862, “PubChem BioAssay data set” (2004).
Values belong to the molecule of their own block, whether it stands above or below them. The source made the active and inactive calls.

What was measured:
[1] = target: Voltage-gated inwardly rectifying potassium channel KCNH2 (Homo sapiens, UniProt Q12809); conditions: Potency;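 also: confirmatory quantitative high-throughput screen measuring inhibition of hERG channel activity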
[2] = target: Mu-type opioid receptor (Homo sapiens, UniProt P35372); format: functional, cell-based;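 also: U2OS cells with beta-arrestin recruitment to OPRM1 by beta-gal complementation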
[3] = target: 5-hydroxytryptamine receptor 2A (Mus musculus, UniProt P35363); format: functional, cell-based;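 also: CHO-K1 cells with tagged receptor and beta-arrestin; agonist potency measured as compound-induced activation of the receptor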
[4] = target: T1, Hexokinase HKDC1 (Homo sapiens, UniProt Q2TB90); experiment: SAR analysis of small molecule inhibitors of hexokinase domain containing I (HKDC1). [Related pubchem assays (depositor defined):AID493160, AID493190]; format: functional
T1 sequence (Q2TB90 whole entry): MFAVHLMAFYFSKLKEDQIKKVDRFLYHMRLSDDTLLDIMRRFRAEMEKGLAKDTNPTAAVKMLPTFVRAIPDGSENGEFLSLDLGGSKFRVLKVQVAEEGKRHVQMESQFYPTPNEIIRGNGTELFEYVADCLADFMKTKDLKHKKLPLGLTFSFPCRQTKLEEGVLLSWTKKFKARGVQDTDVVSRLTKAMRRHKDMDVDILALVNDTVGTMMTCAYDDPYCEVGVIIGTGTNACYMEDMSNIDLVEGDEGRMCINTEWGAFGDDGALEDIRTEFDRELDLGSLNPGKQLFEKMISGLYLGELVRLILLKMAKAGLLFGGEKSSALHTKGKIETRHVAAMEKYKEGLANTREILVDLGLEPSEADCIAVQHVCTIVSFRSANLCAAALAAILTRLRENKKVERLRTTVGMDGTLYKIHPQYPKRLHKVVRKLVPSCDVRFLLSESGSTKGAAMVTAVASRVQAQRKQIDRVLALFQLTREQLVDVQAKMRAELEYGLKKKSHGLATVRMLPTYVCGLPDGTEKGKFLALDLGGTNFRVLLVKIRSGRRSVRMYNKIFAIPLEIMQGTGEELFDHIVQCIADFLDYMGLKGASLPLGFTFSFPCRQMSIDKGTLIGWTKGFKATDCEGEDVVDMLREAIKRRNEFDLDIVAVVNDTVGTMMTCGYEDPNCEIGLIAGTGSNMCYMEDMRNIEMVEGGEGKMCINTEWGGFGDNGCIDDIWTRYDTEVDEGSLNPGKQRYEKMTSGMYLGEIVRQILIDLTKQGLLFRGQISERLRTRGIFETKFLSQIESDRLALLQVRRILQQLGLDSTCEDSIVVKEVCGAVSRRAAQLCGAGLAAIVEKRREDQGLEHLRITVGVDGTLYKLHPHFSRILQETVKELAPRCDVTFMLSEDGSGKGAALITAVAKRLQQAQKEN

[5] = target: T2, Hexokinase-1 (Homo sapiens, UniProt P19367); experiment: SAR analysis of small molecule inhibitors of hexokinase domain containing I (HKDC1) in the hexokinase 1 selectivity assay. [Related pubchem assays (depositor defined):AID493160, AID493190]; format: functional
[6] = target: T1, Hexokinase HKDC1; experiment: analog inhibition of human HKDC1 activity – biochemical, set 2, SAR follow-up (AID 588355); format: functional
[7] = target: T2, Hexokinase-1; experiment: hexokinase 1 activity inhibitors, potency – biochemical, set 2, resazurin fluorescence coupled readout, selectivity assay for HKDC1 inhibitor project, SAR follow-up (AID 588356); format: functional
[8] = target: T3, Phospholipase D2 (Homo sapiens, UniProt O14939); experiment: PLD2 purified enzyme concentration response. [Related pubchem assays (depositor defined):AID588854]; format: functional
[9] = target: T3, Phospholipase D2; experiment: cellular phospholipase D2 inhibition IC50 – cell-based, dose response (AID 602147); format: functional;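 also: cellular assay in HEK293 cells overexpressing GFP-tagged PLD2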
[10] = target: T4, Phospholipase D1 (Homo sapiens, UniProt Q13393); experiment: PLD1 purified enzyme concentration response. [Related pubchem assays (depositor defined):AID588854]; format: functional
T4 sequence (Q13393 whole entry): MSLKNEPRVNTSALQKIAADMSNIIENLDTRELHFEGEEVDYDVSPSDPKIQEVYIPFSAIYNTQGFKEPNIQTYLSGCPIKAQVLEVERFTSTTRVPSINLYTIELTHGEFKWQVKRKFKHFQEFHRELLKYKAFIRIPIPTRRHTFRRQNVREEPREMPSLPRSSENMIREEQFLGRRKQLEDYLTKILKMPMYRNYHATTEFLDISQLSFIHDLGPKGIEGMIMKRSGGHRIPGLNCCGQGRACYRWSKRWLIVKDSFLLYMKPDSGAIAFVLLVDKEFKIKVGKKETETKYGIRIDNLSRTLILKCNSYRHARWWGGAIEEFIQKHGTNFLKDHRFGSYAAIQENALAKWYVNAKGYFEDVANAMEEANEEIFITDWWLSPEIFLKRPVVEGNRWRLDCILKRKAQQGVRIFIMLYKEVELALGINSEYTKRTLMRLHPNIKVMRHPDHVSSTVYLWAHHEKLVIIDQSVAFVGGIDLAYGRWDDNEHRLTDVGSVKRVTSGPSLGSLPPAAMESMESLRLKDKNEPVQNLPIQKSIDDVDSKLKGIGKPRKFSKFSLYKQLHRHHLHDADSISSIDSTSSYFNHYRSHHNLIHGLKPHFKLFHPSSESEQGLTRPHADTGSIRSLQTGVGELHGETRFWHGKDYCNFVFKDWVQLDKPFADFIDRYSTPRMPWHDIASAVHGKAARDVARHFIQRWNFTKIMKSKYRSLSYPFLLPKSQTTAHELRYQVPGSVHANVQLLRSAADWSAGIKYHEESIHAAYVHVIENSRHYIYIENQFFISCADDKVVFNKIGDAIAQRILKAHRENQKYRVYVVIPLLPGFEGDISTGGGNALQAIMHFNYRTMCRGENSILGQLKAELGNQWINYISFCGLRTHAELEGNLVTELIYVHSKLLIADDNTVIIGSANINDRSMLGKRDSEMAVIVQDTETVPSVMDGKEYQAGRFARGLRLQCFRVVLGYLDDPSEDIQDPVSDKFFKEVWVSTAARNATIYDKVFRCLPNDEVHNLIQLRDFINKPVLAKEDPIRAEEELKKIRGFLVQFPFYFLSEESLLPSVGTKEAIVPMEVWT

[11] = target: T4, Phospholipase D1; experiment: cellular phospholipase D1 inhibition IC50 – cell-based, dose response (AID 602151); format: functional;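 also: cellular PLD1 assay in Calu-1 cells stimulated with PMA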

T3 sequence (O14939 whole entry): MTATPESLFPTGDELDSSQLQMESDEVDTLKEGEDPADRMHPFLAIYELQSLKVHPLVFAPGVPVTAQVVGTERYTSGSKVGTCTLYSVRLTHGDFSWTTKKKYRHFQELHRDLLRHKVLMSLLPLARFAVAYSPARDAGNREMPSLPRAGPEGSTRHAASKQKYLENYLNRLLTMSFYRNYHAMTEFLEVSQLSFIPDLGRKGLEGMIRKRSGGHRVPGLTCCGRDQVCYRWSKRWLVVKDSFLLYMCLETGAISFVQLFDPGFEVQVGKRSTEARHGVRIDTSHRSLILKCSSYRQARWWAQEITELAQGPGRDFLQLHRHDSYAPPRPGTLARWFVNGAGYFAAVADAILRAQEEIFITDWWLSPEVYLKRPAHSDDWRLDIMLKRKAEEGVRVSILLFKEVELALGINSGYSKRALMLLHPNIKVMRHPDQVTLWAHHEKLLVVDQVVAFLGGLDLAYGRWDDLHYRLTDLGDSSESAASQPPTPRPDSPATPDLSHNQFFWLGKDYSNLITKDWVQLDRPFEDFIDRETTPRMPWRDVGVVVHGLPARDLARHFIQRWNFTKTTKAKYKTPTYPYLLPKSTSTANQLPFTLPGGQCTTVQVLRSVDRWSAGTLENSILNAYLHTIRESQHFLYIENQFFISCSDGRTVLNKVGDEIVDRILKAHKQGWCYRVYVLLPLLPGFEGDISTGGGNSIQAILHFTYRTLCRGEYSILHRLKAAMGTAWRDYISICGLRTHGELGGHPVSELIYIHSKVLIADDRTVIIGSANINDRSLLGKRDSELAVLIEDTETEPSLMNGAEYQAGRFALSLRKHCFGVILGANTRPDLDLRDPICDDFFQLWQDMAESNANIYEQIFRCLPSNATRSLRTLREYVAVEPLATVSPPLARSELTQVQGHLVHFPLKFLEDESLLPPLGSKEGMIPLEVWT
T2 sequence (P19367 whole entry, the tested form may be a part): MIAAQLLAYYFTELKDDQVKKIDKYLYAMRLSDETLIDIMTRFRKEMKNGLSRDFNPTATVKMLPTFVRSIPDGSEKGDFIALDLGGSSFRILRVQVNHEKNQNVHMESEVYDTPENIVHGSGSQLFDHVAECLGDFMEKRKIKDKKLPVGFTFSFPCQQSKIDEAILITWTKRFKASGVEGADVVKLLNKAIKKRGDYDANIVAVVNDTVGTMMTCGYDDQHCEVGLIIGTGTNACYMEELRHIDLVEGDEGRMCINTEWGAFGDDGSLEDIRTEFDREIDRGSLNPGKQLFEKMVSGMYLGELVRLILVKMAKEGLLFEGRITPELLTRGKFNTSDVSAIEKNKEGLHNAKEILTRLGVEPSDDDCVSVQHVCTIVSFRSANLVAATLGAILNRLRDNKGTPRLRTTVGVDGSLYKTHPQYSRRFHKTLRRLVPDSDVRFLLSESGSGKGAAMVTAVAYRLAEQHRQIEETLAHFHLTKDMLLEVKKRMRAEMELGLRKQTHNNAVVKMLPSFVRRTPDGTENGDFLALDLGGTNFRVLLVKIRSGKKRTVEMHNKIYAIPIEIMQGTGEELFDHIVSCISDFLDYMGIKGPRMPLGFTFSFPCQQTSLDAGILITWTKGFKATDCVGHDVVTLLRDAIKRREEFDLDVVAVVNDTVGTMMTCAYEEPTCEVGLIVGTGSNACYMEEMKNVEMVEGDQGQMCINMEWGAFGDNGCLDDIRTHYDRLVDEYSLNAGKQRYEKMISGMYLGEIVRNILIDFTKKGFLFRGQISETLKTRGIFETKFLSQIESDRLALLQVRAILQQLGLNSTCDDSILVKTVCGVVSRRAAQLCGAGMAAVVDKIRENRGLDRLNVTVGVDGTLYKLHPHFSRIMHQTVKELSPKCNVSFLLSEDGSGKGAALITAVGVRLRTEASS
Mu-type opioid receptor, sequence (P35372 whole entry): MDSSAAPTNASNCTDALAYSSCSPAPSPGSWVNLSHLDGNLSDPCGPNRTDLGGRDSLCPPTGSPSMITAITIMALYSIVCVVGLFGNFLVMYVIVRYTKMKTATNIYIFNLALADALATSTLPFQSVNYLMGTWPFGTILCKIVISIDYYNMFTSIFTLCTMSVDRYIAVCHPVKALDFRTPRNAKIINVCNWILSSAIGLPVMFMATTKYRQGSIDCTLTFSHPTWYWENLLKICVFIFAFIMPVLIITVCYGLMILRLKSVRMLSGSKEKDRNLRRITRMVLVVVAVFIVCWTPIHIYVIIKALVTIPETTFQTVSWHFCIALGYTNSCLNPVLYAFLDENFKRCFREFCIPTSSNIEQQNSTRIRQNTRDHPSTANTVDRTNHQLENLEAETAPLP
5-hydroxytryptamine receptor 2A, sequence (P35363 whole entry, the tested form may be a part): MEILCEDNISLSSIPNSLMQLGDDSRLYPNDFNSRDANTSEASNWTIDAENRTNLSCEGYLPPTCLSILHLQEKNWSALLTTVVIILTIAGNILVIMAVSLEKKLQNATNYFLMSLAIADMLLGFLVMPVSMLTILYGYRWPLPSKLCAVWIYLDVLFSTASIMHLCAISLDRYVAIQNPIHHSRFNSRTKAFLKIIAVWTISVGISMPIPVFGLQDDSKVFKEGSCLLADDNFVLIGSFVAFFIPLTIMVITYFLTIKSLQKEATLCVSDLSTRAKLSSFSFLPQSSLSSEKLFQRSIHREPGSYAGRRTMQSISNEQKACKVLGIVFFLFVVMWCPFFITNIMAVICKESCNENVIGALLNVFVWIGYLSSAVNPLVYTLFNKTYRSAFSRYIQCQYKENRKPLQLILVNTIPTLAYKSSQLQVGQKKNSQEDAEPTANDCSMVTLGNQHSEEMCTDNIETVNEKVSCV
Voltage-gated inwardly rectifying potassium channel KCNH2, sequence (Q12809 whole entry): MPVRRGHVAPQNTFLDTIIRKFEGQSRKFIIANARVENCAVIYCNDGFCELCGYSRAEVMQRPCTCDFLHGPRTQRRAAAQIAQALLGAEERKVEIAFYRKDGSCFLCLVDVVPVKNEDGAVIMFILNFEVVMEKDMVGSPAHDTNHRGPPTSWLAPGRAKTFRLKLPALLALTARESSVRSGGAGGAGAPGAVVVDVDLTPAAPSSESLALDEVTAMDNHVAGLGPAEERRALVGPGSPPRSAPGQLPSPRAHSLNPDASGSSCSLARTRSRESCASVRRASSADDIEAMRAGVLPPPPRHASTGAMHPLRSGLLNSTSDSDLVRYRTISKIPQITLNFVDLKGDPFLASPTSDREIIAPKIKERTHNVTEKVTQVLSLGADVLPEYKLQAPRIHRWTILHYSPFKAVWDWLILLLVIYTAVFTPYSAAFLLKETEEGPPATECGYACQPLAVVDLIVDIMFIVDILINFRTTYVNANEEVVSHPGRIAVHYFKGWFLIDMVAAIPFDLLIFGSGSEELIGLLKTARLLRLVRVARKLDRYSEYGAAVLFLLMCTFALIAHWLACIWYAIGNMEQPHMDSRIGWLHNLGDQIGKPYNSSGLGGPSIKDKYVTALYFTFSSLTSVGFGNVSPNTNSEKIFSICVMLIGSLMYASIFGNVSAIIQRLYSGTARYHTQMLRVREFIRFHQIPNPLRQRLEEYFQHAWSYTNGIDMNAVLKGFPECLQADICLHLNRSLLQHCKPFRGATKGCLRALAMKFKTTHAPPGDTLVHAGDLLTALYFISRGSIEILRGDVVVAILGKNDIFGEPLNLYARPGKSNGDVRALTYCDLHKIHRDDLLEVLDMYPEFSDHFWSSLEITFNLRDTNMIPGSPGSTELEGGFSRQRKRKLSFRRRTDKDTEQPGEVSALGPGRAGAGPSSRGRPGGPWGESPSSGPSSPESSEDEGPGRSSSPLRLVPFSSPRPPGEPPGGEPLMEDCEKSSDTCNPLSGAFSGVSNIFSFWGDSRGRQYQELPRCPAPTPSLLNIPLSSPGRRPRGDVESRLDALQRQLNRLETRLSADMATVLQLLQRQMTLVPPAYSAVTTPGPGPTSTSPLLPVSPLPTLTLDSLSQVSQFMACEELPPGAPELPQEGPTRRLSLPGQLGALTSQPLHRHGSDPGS

EC50 [2]: 92.5 µM (inactive)
EC50 [3]: 2.32 µM (active)
Structure (SMILES): C=CCN1CCc2cc(O)c(O)cc2C(c2ccccc2)C1 (stereo unspecified)
AC50 [1]: 15.8 µM (inconclusive)

IC50 [4]: > 80 µM (inactive)
IC50 [5]: > 80 µM (inactive)
Structure (SMILES): O=C(Nc1cccc(C(F)(F)F)c1)c1cccc(NC(=O)c2cnccn2)c1

IC50 [6]: > 80 µM (inactive)
IC50 [7]: > 80 µM (inactive)
Structure (SMILES): CC(=O)NC1C(=O)N(Cc2ccccc2)c2ccc(Cl)cc21 (stereo unspecified)

Structure (SMILES): C[C@H](CN1CCC(n2c(=O)[nH]c3cc(Cl)ccc32)CC1)NC(=O)c1cc2ccccc2[nH]1
IC50 [8]: 0.12 µM (active)
IC50 [9]: 0.26 µM (active)
IC50 [10]: 0.009 µM (active)
IC50 [11]: 0.002 µM (active)
